Some test systems named below: SK-OV-3 ovarian; HOP-62 NSCLC; SF-295 CNS; UACC-62 melanoma; KM12 colon; NCI-H522 lung; UO-31 renal; HL-60(TB) leukemia; HT29 colon; UACC-257 melanoma; HCC-2998 colon; LOX IMVI melanoma; RXF 393 renal; OVCAR-3 ovarian; OVCAR-4 ovarian; SNB-75 CNS; SK-MEL-28 melanoma; RPMI-8226 leukemia; SN12C renal; NCI/ADR-RES ovarian.
Holding throughout (experiment): NCI anticancer screen, dose series, 48 h

Molecules are shown by their SMILES.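 96-well plates; 48 h exposure; 5 concentrations. Endpoints by linear interpolation between flanking doses. Not reached: highest tested concentration assigned. TGI: total growth inhibition.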 Some results are limits rather than exact numbers.

`O=C(N/N=C/c1cc(Br)cc(Br)c1[O-])c1ccccc1O.O=C(N/N=C/c1cc(Br)cc(Br)c1[O-])c1ccccc1O.[Cu+2]`: the TGI in the experiment with SK-OV-3 ovarian came to 1.12 µM; in the experiment on HOP-62 NSCLC, 0.845 µM; in the experiment on SF-295 CNS, 1.24 µM; in the experiment on UACC-62 melanoma, 0.551 µM; in the experiment with KM12 colon, 1.98 µM; in the experiment with NCI-H522 lung, 0.59 µM. Besides, the TGI with UO-31 renal was determined as 1.5 µM; with HL-60(TB) leukemia it was 0.359 µM; in the experiment on HT29 colon, 2.5 µM; in the experiment with UACC-257 melanoma, 1.74 µM; in the experiment on HCC-2998 colon, 1.48 µM; in the experiment with LOX IMVI melanoma, 1.61 µM. Also, the TGI is 0.926 µM in the experiment with RXF 393 renal; 0.702 µM in the experiment with OVCAR-3 ovarian; 0.56 µM in the experiment on OVCAR-4 ovarian; 1.99 µM in the experiment on SNB-75 CNS; 2.01 µM with SK-MEL-28 melanoma.

As for `CN1C2CCC1CC(C)(O)C2` (stereo unspecified), the TGI in the experiment on HOP-62 NSCLC, with SF-295 CNS, in the experiment on KM12 colon, in the experiment on UO-31 renal, with HL-60(TB) leukemia and in the experiment on HT29 colon was greater than 100 µM each time. Further, the TGI with UACC-257 melanoma, in the experiment with HCC-2998 colon, in the experiment with LOX IMVI melanoma, with RPMI-8226 leukemia, in the experiment on RXF 393 renal and with OVCAR-3 ovarian was greater than 100 µM throughout. Further, the TGI with SN12C renal, in the experiment with NCI/ADR-RES ovarian and with SK-MEL-28 melanoma was greater than 100 µM each time.

Consider `Nc1ccn(C2OC(CO)C(O)C2O)c(=O)c1` (stereo unspecified), for which the TGI in the experiment on SK-OV-3 ovarian was greater than 625 µM; with HOP-62 NSCLC, 403 µM; in the experiment on SF-295 CNS, greater than 625 µM; in the experiment with UACC-62 melanoma, greater than 625 µM; in the experiment with KM12 colon, greater than 625 µM; in the experiment on NCI-H522 lung it was greater than 625 µM. In addition, the TGI in the experiment on UO-31 renal is greater than 625 µM; in the experiment with HL-60(TB) leukemia, greater than 625 µM; with HT29 colon, greater than 625 µM; with HCC-2998 colon, greater than 625 µM; in the experiment with LOX IMVI melanoma it was 446 µM; in the experiment on RPMI-8226 leukemia, 524 µM. For the same molecule, the TGI in the experiment with RXF 393 renal was greater than 625 µM; with OVCAR-3 ovarian, greater than 625 µM; in the experiment with SN12C renal it was 381 µM; in the experiment on OVCAR-4 ovarian it was greater than 625 µM; in the experiment on SNB-75 CNS, greater than 625 µM; in the experiment on NCI/ADR-RES ovarian it was greater than 625 µM. Besides, the TGI with SK-MEL-28 melanoma was greater than 625 µM.

As to `COc1ccc(C2COc3cc(O)c(O)cc3C2)cc1` (stereo unspecified), the TGI was 163 µM with SK-OV-3 ovarian; 232 µM in the experiment with HOP-62 NSCLC; 205 µM in the experiment with SF-295 CNS; 46.3 µM in the experiment on UACC-62 melanoma; 164 µM with KM12 colon; 14.1 µM with NCI-H522 lung. Moreover, the TGI is 279 µM in the experiment with UO-31 renal; 5.41 µM in the experiment with HL-60(TB) leukemia; 204 µM in the experiment on HT29 colon; 181 µM in the experiment on UACC-257 melanoma; 184 µM in the experiment on HCC-2998 colon; 500 µM in the experiment on LOX IMVI melanoma. For the same molecule, the TGI in the experiment on RPMI-8226 leukemia came to 25.2 µM; in the experiment on RXF 393 renal, 20.3 µM; with OVCAR-3 ovarian, 28.1 µM; with SN12C renal, 166 µM; in the experiment on OVCAR-4 ovarian it was 45.6 µM; in the experiment on SNB-75 CNS, 164 µM. Moreover, the TGI was determined as 27.1 µM in the experiment with NCI/ADR-RES ovarian and 32.9 µM in the experiment with SK-MEL-28 melanoma.

Values taken from PubChem BioAssay (NCI).
